Test results from paper PMC9050161 (RSC Advances, 2020).

Experiments:
[1] = Chemical inhibition assay, glucuronidation of PI-103 in pooled HLM; format: in vitro ADME, human
[2] = Chemical inhibition assay, phase I metabolism of PI-103 in pooled HLM; format: in vitro ADME, human; conditions: inhibitor 0.1 μM (CYP1A2 inhibitor)

| Compound | activity of PI-103 glucuronidation in HLM ([1]; inhibitor 10 μM) | further results |
| --- | --- | --- |
| C[C@H](CCC(=O)O)[C@H]1CC[C@H]2[C@@H]3[C@H](O)C[C@@H]4C[C@H](O)CC[C@]4(C)[C@H]3CC[C@]12C [CDCA] | – | activity of PI-103 glucuronidation in HLM ([1]; inhibitor 20 μM): no changes |
| CN(C)CCC=C1c2ccccc2CCc2ccccc21 [amitriptyline] | no changes | – |
| C[C@]12CC[C@@H](O)C[C@@H]1CC[C@@H]1[C@@H]2CC[C@]2(C)C(=O)CC[C@@H]12 [androsterone] | 69.36 % of the control values | – |
| Cc1cn(-c2cc(NC(=O)c3ccc(C)c(Nc4nccc(-c5cccnc5)n4)c3)cc(C(F)(F)F)c2)cn1 [nilotinib] | 82.37 % of the control values | – |
| O=c1cc(-c2ccccc2)oc2c1ccc1ccccc12 [α-naphthoflavone] | – | remaining activity of PI-103 phase I metabolism in HLM [2]: 53.37 % of the control values |
